Results: patent US10618916B2, “Heterocyclic compounds as immunomodulators” (Incyte Corporation, priority 2018, dated 2020)

Legend:
[1] = system: PD-L1 aAPC/CHO-K1 cells and Jurkat-PD-1-NFAT effector cells; assay: Nuclear factor of activated T-cells (NFAT) assay; format: cell-based; conditions: Cricetulus griseus, CHO-K1
Method in brief: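 CHO-K1 cells expressing PD-L1 aAPC were co-cultured with Jurkat-PD-1-NFAT effector cells in RPMI 1640 with 1% FBS and compound (0.4% DMSO; top concentration 2 μM) for 24 h at 37 °C. Bio-Glo luminescence was read, fold induction normalised to DMSO wells, and EC50 fitted from percent of control compound activity.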

[2] = biological target: PD-1/PD-L1 protein/protein interaction (recombinant human PD-L1 and human PD-1) (Homo sapiens (Human), UniProt Q9NZQ7); assay: Homogeneous Time-Resolved Fluorescence (HTRF) PD-1/PD-L1 binding assay
Method in brief: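 Human PD-L1 (19-238, C-His; 10 nM final) and PD-1 (25-167, C-Fc; 3 nM final) preincubated 40 min with inhibitor in PBS pH 7.4, 0.05% Tween-20, 0.1% BSA, 1% DMSO, 25 °C. Eu-anti-human IgG (1 nM) and anti-His-APC (20 nM) added for 60 min; 665/620 nm ratio; IC50 from percent-control curves.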

PD-L1 = PD-L1 (Homo sapiens (Human), UniProt Q9NZQ7); assay: PD-L1 whole blood internalization assay; format: cell-based; conditions: 24 HR, PD-L1 expression on CD14+ cells, human interferon γ
[3] = system: U2OS/PD-L1 cells and Jurkat-PD-1-SHP cells; assay: Src homology region 2 domain-containing phosphatase (SHP) assay; format: cell-based; conditions: Homo sapiens, U2OS
Method in brief: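 U2OS/PD-L1 and Jurkat-PD-1-SHP cells (5000 each per well) were co-incubated with compound for 2 h at 37 °C in RPMI1640 with 1% FBS, 0.05% DMSO final. PathHunter chemiluminescence was read after 1 h at room temperature, and IC50 was fitted from percent of DMSO-control activity.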

PD-1/PD-L1 protein/protein interaction (recombinant human PD-L1 and human PD-1), sequence (Q9NZQ7 19-238): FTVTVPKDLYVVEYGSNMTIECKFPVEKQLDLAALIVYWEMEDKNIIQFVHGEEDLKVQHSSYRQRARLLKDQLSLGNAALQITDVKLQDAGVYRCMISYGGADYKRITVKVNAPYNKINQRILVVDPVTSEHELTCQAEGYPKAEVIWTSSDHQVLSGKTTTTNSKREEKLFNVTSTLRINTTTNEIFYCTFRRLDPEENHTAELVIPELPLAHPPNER
PD-L1, sequence (Q9NZQ7 19-290): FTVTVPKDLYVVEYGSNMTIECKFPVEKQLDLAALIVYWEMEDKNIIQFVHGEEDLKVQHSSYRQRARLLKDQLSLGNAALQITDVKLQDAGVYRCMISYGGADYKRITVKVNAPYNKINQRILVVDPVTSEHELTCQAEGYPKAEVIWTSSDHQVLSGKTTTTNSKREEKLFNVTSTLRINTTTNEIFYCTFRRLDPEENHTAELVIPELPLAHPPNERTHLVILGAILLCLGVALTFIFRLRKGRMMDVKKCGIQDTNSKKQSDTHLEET

SMILES | EC50 [1] [nM] | IC50 [2] [nM] | IC50 (PD-L1) [nM] | IC50 [3] [nM]
C[C@@H](O)CN1CCc2c(nc(C(=O)Nc3cccc(-c4cccc(NC(=O)c5nc6c(n5C)CCN(CCC57CCC(C(=O)O)(CC5)C7)C6)c4Cl)c3Cl)n2C)C1 [Example 13, (R)-4-(2-(2-((2,2′-dichloro-3′-(5-(2-hydroxypropyl)-1-methyl-4,5,6,7-tetrahydro-1H-imidazo[4,5-c]pyridine-2-carboxamido)-[1,1′-biphenyl]-3-yl)carbamoyl)-1-methyl-1,4,6,7-tetrahydro-5H-imidazo[4,5-c]pyridin-5-yl)ethyl)bicyclo[2.2.1]heptane-1-carboxylic Acid] | ≤ 10 | ≤ 5 | 10 to 100 | ≤ 10
Cc1c(NC(=O)c2nc3c(n2C)CCN(CCC24CCC(C(=O)O)(CC2)C4)C3)cccc1-c1cccc(NC(=O)c2nc3c(n2C)CCN(C[C@@H](C)O)C3)c1Cl [Example 41, (R)-4-(2-(2-((2′-chloro-3′-(5-(2-hydroxypropyl)-1-methyl-4,5,6,7-tetrahydro-1H-imidazo[4,5-c]pyridine-2-carboxamido)-2-methyl-[1,1′-biphenyl]-3-yl)carbamoyl)-1-methyl-1,4,6,7-tetrahydro-5H-imidazo[4,5-c]pyridin-5-yl)ethyl)bicyclo[2.2.1]heptane-1-carboxylic Acid] | 10 to 100 | ≤ 5 | 10 to 100 | ≤ 10
Cn1c(C(=O)Nc2cccc(-c3cccc(NC(=O)c4nc5c(n4C)CCN(C[C@@H](O)CO)C5)c3Cl)c2Cl)nc2c1CCN(CCC13CCC(C(=O)O)(CC1)C3)C2 [Example 11, (R)-4-(2-(2-((2,2′-dichloro-3′-(5-(2,3-dihydroxypropyl)-1-methyl-4,5,6,7-tetrahydro-1H-imidazo[4,5-c]pyridine-2-carboxamido)-[1,1′-biphenyl]-3-yl)carbamoyl)-1-methyl-1,4,6,7-tetrahydro-5H-imidazo[4,5-c]pyridin-5-yl)ethyl)bicyclo[2.2.1]heptane-1-carboxylic acid] | 10 to 100 | 5 to 10 | 100 to 500 | 10 to 100
Cn1c(C(=O)Nc2cccc(-c3cccc(NC(=O)c4nc5c(n4C)CCN(CCC46CCC(C(=O)O)(CC4)C6)C5)c3Cl)c2Cl)nc2c1CCN(CCCO)C2 [Example 16, 4-(2-(2-((2,2′-dichloro-3′-(5-(3-hydroxypropyl)-1-methyl-4,5,6,7-tetrahydro-1H-imidazo[4,5-c]pyridine-2-carboxamido)-[1,1′-biphenyl]-3-yl)carbamoyl)-1-methyl-1,4,6,7-tetrahydro-5H-imidazo[4,5-c]pyridin-5-yl)ethyl)bicyclo[2.2.l]-heptane-1-carboxylic acid] | ≤ 10 | ≤ 5 | 10 to 100 | ≤ 10
Cn1c(C(=O)Nc2cccc(-c3cccc(NC(=O)c4nc5c(n4C)CCN(CCC46CCC(C(=O)O)(CC4)C6)C5)c3C#N)c2Cl)nc2c1CCN(CCC13CCC(C(=O)O)(CC1)C3)C2 [Example 51, 4,4′-(((((2-chloro-2′-cyano-[1,1′-biphenyl]-3,3′-diyl)bis(azanediyl))bis(carbonyl))bis(1-methyl-1,4,6,7-tetrahydro-5H-imidazo[4,5-c]pyridine-2,5-diyl))bis(ethane-2,1-diyl))bis(bicyclo[2.2.1]heptane-1-carboxylic acid)] | 10 to 100 | ≤ 5 | 10 to 100 | ≤ 10
